# Test results published in patent publication US20100041089A1, “IMPROVED METHOD FOR DETECTING CHEMICAL […]” (priority 2006, published 2010).
# System: yeast genes (expressed mRNA)
# Test: DNA chip measurement of expressed mRNA of yeast genes after culture with a toxic chemical substance
# Type: cell-based, Saccharomyces cerevisiae S288C
# Description: Yeast (Saccharomyces cerevisiae S288C (a SUC2mal mel gap2 CUP1)) were cultured at 25° C. on YPD medium (yeast extract 1%, polypeptone 2%, glucose 2%). One of toxic chemical substances was added to the cell at logarithmic growth phase, and the cell was further cultured for two hours. Cell was cultured without any chemical substance in the same condition, and was used as a control. Concentrations of the chemical substances were defined to inhibit the growth of the yeast but not lead to death.
# After the completion of cultivation, the culture was centrifuged to collect the cells. To the cells, sodium acetate buffer (50 mM sodium acetate, 10 mM EDTA, 1% SDS) was added, and the mixture was shaken at 65° C. for five minutes, followed by returning to room temperature, and obtaining the supernatant, which procedure was repeated two times. To the supernatant, ½ amount of a solution of phenol/chloroform (1:1) was added, and the mixture was centrifuged to give a supernatant, an equal amount of chloroform was added, and the mixture was centrifuged to give a supernatant. To the supernatant, an equal amount of isopropanol containing 0.3 M sodium acetate was added, and the mixture was allowed to stand at room temperature for 30 minutes, after which the mixture was centrifuged to give sediment of the whole RNAs. Seventy % ethanol was added to the sediment, and the mixture was again centrifuged to give sediment, which was then dried and dissolved in water. mRNA was isolated from the whole RNAs as followings. In view of the fact that a poly A chain is attached to the 3′ terminus of mRNA, a polynucleotide having a poly T structure which was immobilized on the surface of latex beads was used to trap the mRNA, and then the mRNA was washed and eluted with spine column (Oligotex-dT30<Super>mRNA Purification Kit, Takara). Reverse transcription of the mRNA was conducted with a reverse transcriptase (Super Script II Reverse Transcriptase; catalogue No. 18064-014, GibcoBRL) using fluorescence-labeled nucleotides to give cDNAs that were introduced with Cy3-dUTP or Cy5-dUTP during the reverse transcription.
# The labeled cDNAs were dissolved in TE buffer (10 mM Tris-HCl/1 mM EDTA, pH 8.0), and the solution was dropped on the DNA chip containing the whole genes of yeast (DNA Chip Research Inc. Japan) so that the cDNAs were hybridized on the DNA chip at 65° C. for over 12 hours. The fluoresces intensity of the DNA chip was read with a scanner, and the ratio relative to the fluorescence intensity resulting from the absence of chemical substance was estimated as the following, which is shown in Tables 1 to 9.
# In the Tables, “Intensity” indicated in the rightmost column is a value of the level of expressed mRNA of each gene in control cells as divided by the average level of the expressions of the whole genes. A gene of which mRNA level is lower in control, and is higher in cases of addition of chemical substance, is especially useful in the detection of toxic substances.
# Here, when a ratio of an amount of mRNA expressed in the presence of the chemical substance to an amount of mRNA expressed in the absence of the chemical substance is two or more, then it is considered significant.
smiles,measurement,setting,value
"CCCCC[C@H](O)CC(=O)CCc1ccc(O)c(OC)c1 [(13), Gingerol]",The level of expressed mRNA in the presence of chemical substance/The level of expressed mRNA in the absence of chemical substance,"yeast gene YKL065C, cultured two hours with substance",3.0
same,level of expressed mRNA in the presence of chemical substance / level in the absence of chemical substance,"yeast gene YKL097C, cultured two hours with the chemical substance",0.9
same,level of expressed mRNA in the presence of chemical substance / level in the absence of chemical substance,"yeast gene YKL100C, cultured two hours with the chemical substance",1.3
same,The level of expressed mRNA in the presence of chemical substance/The level of expressed mRNA in the absence of chemical substance,"yeast gene YKL153W, cultured two hours with substance",2.4
same,The level of expressed mRNA in the presence of chemical substance/The level of expressed mRNA in the absence of chemical substance,"yeast gene YKL194C, mitochondria-located protein gene, cultured two hours with substance",1.1
same,The level of expressed mRNA in the presence of chemical substance/The level of expressed mRNA in the absence of chemical substance,yeast gene YKL218C,5.1
same,The level of expressed mRNA in the presence of chemical substance/The level of expressed mRNA in the absence of chemical substance,"yeast gene YKR018C, cultured two hours with substance",3.0
same,level of expressed mRNA in the presence of chemical substance / level in the absence of chemical substance,"yeast gene YKR040C, cultured two hours with the chemical substance",0.6
same,The level of expressed mRNA in the presence of chemical substance/The level of expressed mRNA in the absence of chemical substance,"yeast gene YKR046C, cultured two hours with substance",2.8
same,The level of expressed mRNA in the presence of chemical substance/The level of expressed mRNA in the absence of chemical substance,"yeast gene YKR075C, cultured two hours with substance",3.8
same,The level of expressed mRNA in the presence of chemical substance/The level of expressed mRNA in the absence of chemical substance,"yeast gene YLL041C, mitochondria-located protein gene, cultured two hours with substance",1.0
same,The level of expressed mRNA in the presence of chemical substance/The level of expressed mRNA in the absence of chemical substance,"yeast gene YLR041W, cultured two hours with the chemical substance",0.3
same,The level of expressed mRNA in the presence of chemical substance/The level of expressed mRNA in the absence of chemical substance,"yeast gene YLR217W, cultured two hours with substance",3.8
same,level of expressed mRNA in the presence of chemical substance / level in the absence of chemical substance,"yeast gene YLR226W, cultured two hours with the chemical substance",0.7
same,level of expressed mRNA in the presence of chemical substance / level in the absence of chemical substance,"yeast gene YLR338W, cultured two hours with the chemical substance",1.2
same,The level of expressed mRNA in the presence of chemical substance/The level of expressed mRNA in the absence of chemical substance,yeast gene YLR340W,0.1
same,The level of expressed mRNA in the presence of chemical substance/The level of expressed mRNA in the absence of chemical substance,"yeast gene YLR350W, cultured two hours with substance",4.5
same,The level of expressed mRNA in the presence of chemical substance/The level of expressed mRNA in the absence of chemical substance,"yeast gene YLR387C, cultured two hours with substance",3.6
same,The level of expressed mRNA in the presence of chemical substance/The level of expressed mRNA in the absence of chemical substance,yeast gene YLR388W,0.1
same,level of expressed mRNA in the presence of chemical substance / level in the absence of chemical substance,"yeast gene YLR392C, cultured two hours with the chemical substance",1.4
same,level of expressed mRNA in the presence of chemical substance / level in the absence of chemical substance,"yeast gene YLR415C, cultured two hours with the chemical substance",1.0
same,level of expressed mRNA in the presence of chemical substance / level in the absence of chemical substance,"yeast gene YLR427W, cultured two hours with the chemical substance",2.5
same,level of expressed mRNA in the presence of chemical substance / level in the absence of chemical substance,"yeast gene YML013W, cultured two hours with the chemical substance",1.2
same,level of expressed mRNA in the presence of chemical substance / level in the absence of chemical substance,"yeast gene YML029W, cultured two hours with the chemical substance",2.0
same,level of expressed mRNA in the presence of chemical substance / level in the absence of chemical substance,"yeast gene YML041C, cultured two hours with the chemical substance",1.2
same,The level of expressed mRNA in the presence of chemical substance/The level of expressed mRNA in the absence of chemical substance,"yeast gene YML054C, cultured for two hours with substance",2.8
same,level of expressed mRNA in the presence of chemical substance / level in the absence of chemical substance,"yeast gene YML079W, cultured two hours with the chemical substance",1.6
same,The level of expressed mRNA in the presence of chemical substance/The level of expressed mRNA in the absence of chemical substance,"yeast gene YML100W, cultured for two hours with substance",3.8
same,level of expressed mRNA in the presence of chemical substance / level in the absence of chemical substance,"yeast gene YMR068W, cultured two hours with the chemical substance",1.4
same,level of expressed mRNA in the presence of chemical substance / level in the absence of chemical substance,"yeast gene YMR071C, cultured two hours with the chemical substance",1.3
same,The level of expressed mRNA in the presence of chemical substance/The level of expressed mRNA in the absence of chemical substance,"yeast gene YMR095C, cultured two hours with substance",3.4
same,level of expressed mRNA in the presence of chemical substance / level in the absence of chemical substance,"yeast gene YMR160W, cultured two hours with the chemical substance",1.6
same,The level of expressed mRNA in the presence of chemical substance/The level of expressed mRNA in the absence of chemical substance,"yeast gene YMR191W, cultured two hours with substance",3.4
same,The level of expressed mRNA in the presence of chemical substance/The level of expressed mRNA in the absence of chemical substance,"yeast gene YMR203W, mitochondria-located protein gene, cultured two hours with substance",1.1
same,The level of expressed mRNA in the presence of chemical substance/The level of expressed mRNA in the absence of chemical substance,"yeast gene YMR210W, cultured two hours with the chemical substance, DNA chip fluorescence ratio",1.0
same,level of expressed mRNA in the presence of chemical substance / level in the absence of chemical substance,"yeast gene YNL026W, cultured two hours with the chemical substance",1.7
same,level of expressed mRNA in the presence of chemical substance / level in the absence of chemical substance,"yeast gene YNL058C, cultured two hours with the chemical substance",0.6
same,level of expressed mRNA in the presence of chemical substance / level in the absence of chemical substance,"yeast gene YNL063W, cultured two hours with the chemical substance",1.5
same,The level of expressed mRNA in the presence of chemical substance/The level of expressed mRNA in the absence of chemical substance,yeast gene YNL069C,0.1
same,The level of expressed mRNA in the presence of chemical substance/The level of expressed mRNA in the absence of chemical substance,"yeast gene YNL115C, cultured two hours with substance",2.5
same,The level of expressed mRNA in the presence of chemical substance/The level of expressed mRNA in the absence of chemical substance,"yeast gene YNL155W, cultured two hours with substance",4.4
same,level of expressed mRNA in the presence of chemical substance / level in the absence of chemical substance,"yeast gene YNL176C, cultured two hours with the chemical substance",0.6
